Laboratory results published in patent US20190284640A1, “Methods and Systems for Predicting Response to Immunotherapies for Treatment of Cancer” (Vanderbilt University, priority 2018, published 2019).
“Also recorded” adds a separate entry of the source.

How the values were obtained:
melanoma cell lines [1] = assay: Flow cytometry of melanoma cell lines under basal and IFNγ-stimulated conditions; type: cell-based, human
Protocol: (§1) FIGS. 3A-F show characterization of MHC-II(+) melanoma cell lines. Melanoma cell lines were treated with IFNy for 24 h before collection and live-cell staining and flow cytometry analysis for (A) MHC-I (HLA-A/B/C), (B) MHC-II (HLA-DR), and (C) PD-L1. Bars represent mean ±S.E.M. for at least three experiments (D) Representative flow plots from (C). (E) Western blot analysis of melanoma cell lines after 24 or 48 h of IFNy stimulation. (F) Phosphorylation of STAT1 (top row) and STATS (bottom row) in melanoma cell lines at 15 min after IFNy stimulation. Histograms were colored according to the arcsinh transformed ratio or MFI medians relative to the table minimum value.
FIGS. 4A-D show graphs illustrating mean expression levels of MHC-I, MHC-II, and PD-L1 at baseline and after IFNy stimulation. Melanoma cell lines were treated with 100 ng IFNy for 24 hr (shown as percentage positive in FIGS. 2A-C) prior to harvest and live-cell staining and flow cytometry analysis for (A) MHC-FHLA-A/B/C, (B) MHC-II/HLA-DR, and (C) PD-L1. Bars represent mean fluorescence intensity ±SEM for 3 experiments. (D) Histograms of HLA-DR surface expression over an extended (24-72 hr) IFNy treatment, as assessed by flow cytometry.
Cell surface expression mirrored mRNA expression patterns; MHC-I (HLA-A/B/C) was expressed ubiquitously among all cell lines under both basal and stimulated conditions, while MHC-II (HLA-DR) was present only on the intermediate/Ib (SKMEL5 and SKMEL28) and high/Ia cell lines (WM115 and A375; FIGS. 3A-C and 4A-D). […] The high (Ia) WM115 cell line was essentially 100% positive for HLA-DR at both basal and stimulated conditions.
Standard Flow Cytometry. Flow cytometry was performed using the following antibodies: HLA-DR/PE-Cy7 (Biolegend, clone L243. 1:20). CD274/PD-L1/APC (Biolegend, clone 29E.2A3, 1:200) and HLA-A/B/C-Alexa Fluor488 (1:100, Biolegend, clone W6/32) mouse MHC-II (I-A/I-E 1:20 Biolegend, clone M5/114.15.2). DAPI was used as a viability dye. Samples were analyzed on an Aria III laser system (BD Biosciences)
Cell and tumor culture. […]

melanoma cell lines [2] = assay: Western blot of melanoma cell lines after IFNγ stimulation; type: cell-based, human
Protocol: as §1
Immunoblotting was performed as previously described^32 Briefly, cells were washed in cold phosphate-buffered saline, collected and lysed in 1×RIPA buffer (50 mM Tris (pH 7.4), 1% NP-40, 150 mM NaCl, 1 mM EDTA, 0.1% SDS, 0.25% sodium deoxycholate, 5 mM NaF, 5 mM Na3VO4, 10% glycerol, […] phenylmethyl-sulphonylfluoride and protease inhibitors) for 30 min on ice. Lysates were sonicated for 2-3 s to shear DNA and cleared by centrifugation at 13,200 r.p.m. for 15 min. Protein concentrations of the lysates were determined by BCA assay (Bio-Rad, Hercules, Calif.). Samples were separated by SDS-PAGE and transferred to nitrocellulose membrane. […]

[3] = test system: melanoma PDX tissue slices; assay: Ex vivo organotypic culture of PDX tumor slices with or without IFNγ; type: cell-based, human; settings: PT1 and PT2 PDX tissue slices, 24-48 h
Source text: FIGS. 6A-D show Ex vivo culture of tumors derived from anti-PD-1-responding and non-responding patients identifies heterogeneity in interferon response. (A) Patient tumor blocks stained for HLA-DR (brown) and SOX10 (pink) at low (scale bar, 500 um) and high magnification (scale bar, […]); PT1: anti-PD-1 non-responder and PT2: anti-PD-1 responder. (B) Experimental schema. (C) Schema and images of PDX tissue sections (ex vivo organotypic culture). (D) Western blot analysis of tissue sections cultured in the presence or absence of IFNy for 24-48 h.
To test this hypothesis, patient-derived xenograft (PDX) models were utilized from the tumor resections of two melanoma patients who subsequently received anti-PD1 therapy; patient 1 (PT1; non-responder, 0% HLA-DR-positive, class II/III) and patient 2 (PT2; partial responder, heterogeneous 15% HLA-DR-positive, class Ib) (FIG. 6A). […] The resected tumors from PT1 and PT2 were serially transplanted to athymic nu/nu mice, which are highly deficient in functional T cells, ruling out a possible source of IFNγ (FIG. 6B). […] Thus, HLA-DR may be a marker of IFNγ activity in the microenvironment of some (but not all) tumors.
Cell and tumor culture. SKMEL-28 and WM115 cell lines were obtained from Dr. Kimberly Dahlman (Vanderbilt University), CHL-1 and HMCB melanoma cell lines were obtained from the laboratory of William Pao (Vanderbilt University). […]

melanoma cell lines [4] = assay: Phospho-flow cytometry of melanoma cell lines after IFNγ stimulation; type: cell-based, human; settings: 15 min IFNγ; MHC-II(−) cell lines
Protocol: as §1
Phospho-flow cytometry. Melanoma cell lines were treated with Accutase™ (EMD Millipore, # SCR005) for 10 minutes at 37° C. to dissociate them from the plate. Dissociated cell lines were rested at 37° C. in a CO2 incubator for 30 minutes prior to stimulation. After resting, cells were stimulated by adding IFNy (Cell Signaling) at a final concentration of 100 ng/mL. During signaling, cells were kept in a 37° C. CO2 incubator. After 15 minutes of signaling, cells were fixed for 10 minutes at room temperature with a final concentration of 1.6% paraformaldehyde (Electron Microscopy Services). […] Samples were analyzed on a LSRII system (BD Biosciences).

[5] = test system: p53 altered MMTV-Neu cells; assay: Chemokine induction by doxorubicin in MMTV-Neu cells; type: cell-based, mouse
Source text: Doxorubicin induces T cell recruiting chemokines in p53 altered MMTV-Neu cells. FIG. 49.

[6] = test system: TP53 mutant mouse breast cancer cells lines; assay: Cytokine expression after doxorubicin in mouse breast cancer cell lines; type: cell-based

Molecule	HLA-DR expression (melanoma cell lines [1]; CHL-1 or HMCB, 72 hrs of IFNγ treatment)	HLA-DR expression (melanoma cell lines [1]; SKMEL28 (intermediate/Ib))	PD-L1 expression (melanoma cell lines [1]; all cell lines tested)	CIITA expression (melanoma cell lines [2]; 24 or 48 h IFNγ)	STAT1 activation (melanoma cell lines [2]; all cell lines)	HLA-DR upregulation [3]	STATS activation (melanoma cell lines [4])	T cell recruiting chemokines [5]	cytokine expression [6]
IFNγ: recombinant human IFNγ (R&D Systems), stimulation at 100 ng/mL	No significant increase	potently induced	potently induced; also recorded: significantly upregulated	only induced in HLA-DR+ Ia/Ib cells	robustly activated	only the PT2 PDX model (anti-PD-1 responder) upregulated HLA-DR	preferentially activated	–	–
COc1cccc2c1C(=O)c1c(O)c3c(c(O)c1C2=O)C[C@@](O)(C(=O)CO)C[C@@H]3O[C@H]1C[C@H](N)[C@H](O)[C@H](C)O1 [Doxorubicin]	–	–	–	–	–	–	–	induces	induce cytokine expression
